One test has as its target T1, human TLR7 (Homo sapiens, UniProt Q9NYK1).
T1 construct: host or cells: HEK293 NF-kB reporter cells
T1 sequence (Q9NYK1 27-1049): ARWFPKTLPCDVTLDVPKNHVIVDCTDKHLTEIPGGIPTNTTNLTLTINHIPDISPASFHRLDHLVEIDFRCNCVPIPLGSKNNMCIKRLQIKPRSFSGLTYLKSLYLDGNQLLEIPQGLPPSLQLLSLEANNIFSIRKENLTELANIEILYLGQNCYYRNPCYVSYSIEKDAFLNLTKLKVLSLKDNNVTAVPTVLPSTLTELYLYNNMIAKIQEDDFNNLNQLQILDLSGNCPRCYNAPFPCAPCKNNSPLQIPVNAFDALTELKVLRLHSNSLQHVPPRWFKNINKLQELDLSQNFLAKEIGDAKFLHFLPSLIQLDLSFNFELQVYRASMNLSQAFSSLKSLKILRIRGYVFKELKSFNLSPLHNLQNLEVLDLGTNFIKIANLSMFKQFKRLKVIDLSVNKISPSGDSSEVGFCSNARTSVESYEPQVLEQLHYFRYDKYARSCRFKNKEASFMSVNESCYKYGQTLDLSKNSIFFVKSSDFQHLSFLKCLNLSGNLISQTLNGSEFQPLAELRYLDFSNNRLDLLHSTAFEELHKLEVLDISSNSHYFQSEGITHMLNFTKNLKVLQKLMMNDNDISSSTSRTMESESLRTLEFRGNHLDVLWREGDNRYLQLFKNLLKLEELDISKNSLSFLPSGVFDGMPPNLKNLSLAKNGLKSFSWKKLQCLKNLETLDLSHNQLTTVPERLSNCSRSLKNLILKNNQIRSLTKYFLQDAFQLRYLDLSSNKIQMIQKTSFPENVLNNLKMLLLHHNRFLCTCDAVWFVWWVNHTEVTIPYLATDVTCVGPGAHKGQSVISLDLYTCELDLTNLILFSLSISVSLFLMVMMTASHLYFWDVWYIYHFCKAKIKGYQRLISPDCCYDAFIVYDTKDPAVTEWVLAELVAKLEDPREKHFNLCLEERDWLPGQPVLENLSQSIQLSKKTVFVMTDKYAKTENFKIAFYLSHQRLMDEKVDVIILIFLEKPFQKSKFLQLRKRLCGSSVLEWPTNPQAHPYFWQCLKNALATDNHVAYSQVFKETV
The test is described as follows: HEK Reporter Assay, HEK293 reporter cells expressing human TLR7. The format is cell-based. Particulars: HEK293 NFKB reporter cells expressing human TLR7; read-out: HEK293 hTLR7 EC50. The protocol: (§1) Each compound was synthesized, purified, and characterized by mass spectrometry and shown to have the mass indicated. Additional experimental procedures are found in the Examples. Activity against HEK293 NFKB reporter cells expressing human TLR7 or human TLR8 was measured according to Example 202.
(§2) Example 202 HEK Reporter Assay
(§3) HEK293 reporter cells expressing human TLR7 or human TLR8 were purchased from Invivogen and vendor protocols were followed for cellular propagation and experimentation. Briefly, cells were grown to 80-85% confluence at 5% CO2 in DMEM supplemented with 10% FBS, Zeocin, and Blasticidin. Cells were then seeded in 96-well flat plates at 4×10^4 cells/well with substrate containing HEK detection medium and immunostimulatory molecules.
On the technique in general: A reporter such as luciferase makes a cellular process visible.

The next test addresses T2, human TLR8 (Homo sapiens, UniProt Q9NR97).
T2 construct: host or cells: HEK293 NF-kB reporter cells
T2 sequence (Q9NR97 27-1041): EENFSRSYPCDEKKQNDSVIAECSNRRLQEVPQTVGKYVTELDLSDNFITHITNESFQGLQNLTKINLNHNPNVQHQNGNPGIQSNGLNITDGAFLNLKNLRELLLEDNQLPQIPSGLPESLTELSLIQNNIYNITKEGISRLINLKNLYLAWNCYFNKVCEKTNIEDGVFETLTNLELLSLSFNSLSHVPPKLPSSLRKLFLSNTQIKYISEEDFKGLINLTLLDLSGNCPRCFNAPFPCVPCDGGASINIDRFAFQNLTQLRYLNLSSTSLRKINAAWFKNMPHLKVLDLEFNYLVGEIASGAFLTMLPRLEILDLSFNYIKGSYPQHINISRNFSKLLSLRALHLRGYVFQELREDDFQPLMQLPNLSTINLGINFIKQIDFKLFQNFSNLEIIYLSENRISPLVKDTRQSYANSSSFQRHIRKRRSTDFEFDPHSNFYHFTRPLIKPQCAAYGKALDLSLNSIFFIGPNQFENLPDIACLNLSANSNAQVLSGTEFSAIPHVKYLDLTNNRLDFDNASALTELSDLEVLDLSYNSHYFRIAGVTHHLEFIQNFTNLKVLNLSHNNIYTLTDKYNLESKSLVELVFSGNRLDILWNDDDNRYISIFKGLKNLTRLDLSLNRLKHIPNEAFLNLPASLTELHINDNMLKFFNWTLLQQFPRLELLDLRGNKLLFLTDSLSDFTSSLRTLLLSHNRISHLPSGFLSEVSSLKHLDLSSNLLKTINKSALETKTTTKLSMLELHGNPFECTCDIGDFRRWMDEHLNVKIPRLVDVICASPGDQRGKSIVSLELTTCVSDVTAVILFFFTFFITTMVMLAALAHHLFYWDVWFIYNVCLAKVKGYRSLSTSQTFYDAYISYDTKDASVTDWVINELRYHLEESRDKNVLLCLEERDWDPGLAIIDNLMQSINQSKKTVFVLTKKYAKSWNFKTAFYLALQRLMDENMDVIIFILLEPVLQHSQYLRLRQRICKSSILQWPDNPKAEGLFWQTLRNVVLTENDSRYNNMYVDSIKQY
The test is described as follows: HEK Reporter Assay, HEK293 reporter cells expressing human TLR8. The format is cell-based. Particulars: HEK293 NFKB reporter cells expressing human TLR8; read-out: HEK293 hTLR8 EC50. As for the experimental part: as §1, §2, §3

Turning to `CCCN(CCCCO)C(=O)C1=Cc2ccc(-c3cccc(S(=O)(=O)N4CC(CNC(=O)OC(C)(C)C)C4)c3)cc2N=C(N)C1` [PhBz-9], the 50% effective concentration (EC50) at human TLR7 was found to be 5.14 µM; at human TLR8, 1.08 µM.

`CCCN(CCO)C(=O)C1=Cc2ccc(-c3cccc(S(=O)(=O)N4CC(CNC(=O)OC(C)(C)C)C4)c3)cc2N=C(N)C1` [PhBz-21]: the EC50 on human TLR7 amounted to 3.52 µM; on human TLR8 it was 0.423 µM.

For `CCCN(OCCO)C(=O)C1=Cc2ccc(-c3cccc(S(=O)(=O)N4CC(CN)C4)c3)cc2N=C(N)C1` [PhBz-25], the EC50 at human TLR8 is 0.822 µM.

What is called EC50 is the midpoint of the concentration-response curve.

Source of the values: patent US20240042050A1, “ANTI-HER2 IMMUNOCONJUGATES, AND USES THEREOF” (BOLT BIOTHERAPEUTICS, INC., priority 2020, published 2024).
